Results reported in publication PMC11379708, “Divergent mechanisms of steroid inhibition in the human ρ1 GABAA receptor” (Nature Communications, 2024).
Counter-ions that a name gives are not always drawn.

Experiments:
human ρ1 GABAA receptor [1] = biological target: T1, human ρ1 GABAA receptor (Homo sapiens, UniProt P24046); assay: cryo-EM structure ([…] Å); TEVC inhibition in Xenopus oocytes; F283Y/F284Y ablates inhibition; assay type: cell-based
T1 construct: gene GABRR1; ρ1-EM (flexible N-terminal region and intracellular M3-M4 loop deleted), homopentamer in saposin nanodiscs

human ρ1 GABAA receptor [2] = biological target: T1, human ρ1 GABAA receptor; assay: cryo-EM structure with GABA; TEVC voltage-dependent block (Woodhull fit); assay type: cell-based

T1 sequence (P24046 22-479): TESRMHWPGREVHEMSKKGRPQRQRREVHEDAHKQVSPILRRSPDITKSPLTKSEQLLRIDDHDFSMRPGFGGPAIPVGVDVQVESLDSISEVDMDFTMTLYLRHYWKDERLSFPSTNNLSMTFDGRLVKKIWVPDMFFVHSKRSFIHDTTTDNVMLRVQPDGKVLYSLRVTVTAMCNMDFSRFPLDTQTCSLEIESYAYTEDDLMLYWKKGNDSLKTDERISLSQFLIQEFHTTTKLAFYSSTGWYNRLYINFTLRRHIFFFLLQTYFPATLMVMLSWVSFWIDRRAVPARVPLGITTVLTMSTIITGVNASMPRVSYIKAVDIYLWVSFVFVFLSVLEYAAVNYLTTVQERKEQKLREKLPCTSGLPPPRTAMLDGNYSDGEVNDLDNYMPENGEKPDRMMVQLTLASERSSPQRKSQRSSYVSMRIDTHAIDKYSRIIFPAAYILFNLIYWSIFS

| Structure (SMILES) | IC50 (human ρ1 GABAA receptor [1]) [µM] | Kd (human ρ1 GABAA receptor [2]) [µM] |
| --- | --- | --- |
| C[C@]12CC[C@@H]3c4ccc(O)cc4CC[C@H]3[C@@H]1CC[C@@H]2O [E2, β-estradiol] | ~30 |  |
| CC(=O)C1CCC2C3CC=C4CC(OS(=O)(=O)O)CCC4(C)C3CCC12C (centres unmarked) [PS, pregnenolone sulfate] |  | 36.3 |
